Literature values, collected in patent EP1479382A1, “Oral pharmaceutical compositions containing taxanes and methods for treatment employing the same” (IVAX Research, Inc., priority 1999, dated 2000).
Where two headings read alike, the source gives them in different places.

CC(=O)O[C@H]1C(=O)[C@@]2(C)[C@H]([C@H](OC(=O)c3ccccc3)[C@]3(O)C[C@H](OC(=O)[C@H](O)[C@@H](NC(=O)c4ccccc4)c4ccccc4)C(C)=C1C3(C)C)[C@]1(OC(C)=O)CO[C@@H]1C[C@@H]2O [paclitaxel]
inhibition of tubulin disassembly occurs at levels of (tubulin): about 0.1 µM | inhibition of tubulin disassembly occurs at levels of (tubulin; same level expressed in ng/ml): about 85 ng/ml | inhibition of protein isoprenylation occurs at levels of (protein isoprenylation): about 0.03 µM | inhibition of protein isoprenylation occurs at levels of (protein isoprenylation; same level expressed in ng/ml): about 25 ng/ml
